Source: ChEMBL document CHEMBL3751730, “Synthesis and in vitro antitumor evaluation of dihydroartemisinin-cinnamic acid ester derivatives” (Eur J Med Chem, 2016)

Legend:
[1] = Antiproliferative activity against human PC3 cells after 72 hrs by MTT assay; assay type: functional, cell-based; conditions: PC-3, 72 h
[2] = tested on: A549; assay: Antiproliferative activity against human A549 cells after 72 hrs by MTT assay; assay type: functional, cell-based; conditions: A549, 72 h
[3] = Antiproliferative activity against human MDA-MB-435S cells after 72 hrs by MTT assay; assay type: functional, cell-based
[4] = Antiproliferative activity against human SGC7901 cells after 72 hrs by MTT assay; assay type: functional, cell-based; conditions: SGC-7901, 72 h
[5] = Chemical stability of the compound at 2 to 4 mg at 25 to 300 degC by differential scanning […] analysis in the presence of nitrogen gas; assay type: physicochemical
[6] = Drug degradation at 2 to 4 mg at 210 to 220 degC by thermogravimetric analysis in the presence of nitrogen gas; assay type: physicochemical; conditions: for degraded: in vivo, read-out: Drug degradation
[7] = Cytotoxicity against human L02 cells after 72 hrs by MTT assay; assay type: cell-based; conditions: L02, 72 h
[8] = Selectivity index, ratio of IC50 for human L02 cells to IC50 for human A549 cells; assay type: functional

C[C@@H]1[C@H](O)C[C@H]2[C@@H](C)[C@H](OC(=O)CCc3ccccc3)O[C@@H]3O[C@@]4(C)CC[C@@H]1[C@]32OO4
IC50 [1]: > 100 µM
IC50 [2]: > 100 µM
IC50 [3]: > 100 µM
IC50 [4]: > 100 µM

C[C@@H]1[C@H](OC(=O)/C=C/c2cccc(Cl)c2)C[C@H]2[C@@H](C)[C@H](OC(=O)/C=C/c3cccc(Cl)c3)O[C@@H]3O[C@@]4(C)CC[C@@H]1[C@]32OO4
IC50 [1]: 11.1 µM
IC50 [2]: 2.72 µM
IC50 [3]: 22.4 µM
IC50 [4]: 12 µM

Cc1ccc(/C=C/C(=O)O[C@@H]2O[C@@H]3O[C@@]4(C)CC[C@H]5[C@H](C)[C@H](O)C[C@@H]([C@H]2C)[C@@]35OO4)cc1
IC50 [1]: > 100 µM
IC50 [2]: > 100 µM
IC50 [3]: > 100 µM
IC50 [4]: > 100 µM

C[C@@H]1[C@H](O)C[C@H]2[C@@H](C)[C@H](OC(=O)/C=C/c3ccc([N+](=O)[O-])cc3)O[C@@H]3O[C@@]4(C)CC[C@@H]1[C@]32OO4
IC50 [1]: > 100 µM
IC50 [2]: > 100 µM
IC50 [3]: > 100 µM
IC50 [4]: > 100 µM

C[C@@H]1[C@H](O)C[C@H]2[C@@H](C)[C@H](OC(=O)/C=C/c3ccc(Cl)cc3)O[C@@H]3O[C@@]4(C)CC[C@@H]1[C@]32OO4
IC50 [1]: > 100 µM
IC50 [2]: > 100 µM
IC50 [3]: 98.6 µM
IC50 [4]: > 100 µM

COc1ccc(/C=C/C(=O)O[C@@H]2O[C@@H]3O[C@@]4(C)CC[C@H]5[C@H](C)[C@H](O)C[C@@H]([C@H]2C)[C@@]35OO4)cc1
IC50 [1]: > 100 µM
IC50 [2]: > 100 µM
IC50 [3]: 87.1 µM
IC50 [4]: > 100 µM

C[C@@H]1[C@H](O)C[C@H]2[C@@H](C)[C@H](OC(=O)/C=C/c3ccc(F)cc3)O[C@@H]3O[C@@]4(C)CC[C@@H]1[C@]32OO4
IC50 [1]: > 100 µM
IC50 [2]: > 100 µM
IC50 [3]: > 100 µM
IC50 [4]: > 100 µM

C[C@@H]1[C@H](OC(=O)/C=C/c2ccc([N+](=O)[O-])cc2)C[C@H]2[C@@H](C)[C@H](OC(=O)/C=C/c3ccc([N+](=O)[O-])cc3)O[C@@H]3O[C@@]4(C)CC[C@@H]1[C@]32OO4
IC50 [1]: 10.7 µM
IC50 [2]: > 100 µM
IC50 [3]: > 100 µM
IC50 [4]: 18.8 µM

C[C@@H]1[C@H](O)C[C@H]2[C@@H](C)[C@H](OC(=O)/C=C/c3ccccc3)O[C@@H]3O[C@@]4(C)CC[C@@H]1[C@]32OO4
IC50 [1]: > 100 µM
IC50 [2]: > 100 µM
IC50 [3]: 76.3 µM
IC50 [4]: > 100 µM

Cc1ccc(/C=C/C(=O)O[C@@H]2O[C@@H]3O[C@@]4(C)CC[C@H]5[C@H](C)[C@H](OC(=O)/C=C/c6ccc(C)cc6)C[C@@H]([C@H]2C)[C@@]35OO4)cc1
IC50 [1]: 87.2 µM
IC50 [2]: > 100 µM
IC50 [3]: > 100 µM
IC50 [4]: > 100 µM

COc1cccc(/C=C/C(=O)O[C@@H]2O[C@@H]3O[C@@]4(C)CC[C@H]5[C@H](C)[C@H](OC(=O)/C=C/c6cccc(OC)c6)C[C@@H]([C@H]2C)[C@@]35OO4)c1
IC50 [1]: 43.9 µM
Stability [5]: Stable
IC50 [2]: 0.8 µM
IC50 [3]: 18.2 µM
degraded [6]: 1%
IC50 [4]: 16.2 µM

C[C@@H]1[C@H](O)C[C@H]2[C@@H](C)[C@H](OC(=O)/C=C/c3ccccc3Cl)O[C@@H]3O[C@@]4(C)CC[C@@H]1[C@]32OO4
IC50 [1]: > 100 µM
IC50 [2]: > 100 µM
IC50 [3]: > 100 µM
IC50 [4]: > 100 µM

COc1ccc(/C=C/C(=O)O[C@@H]2O[C@@H]3O[C@@]4(C)CC[C@H]5[C@H](C)[C@H](OC(=O)/C=C/c6ccc(OC)c(OC)c6OC)C[C@@H]([C@H]2C)[C@@]35OO4)c(OC)c1OC
IC50 [1]: 2.95 µM
IC50 [7]: 57.9 µM
IC50 [2]: 1.66 µM
Ratio IC50 [8]: 34.88
IC50 [3]: 16.6 µM
IC50 [4]: 19.6 µM

C[C@@H]1[C@H](OC(=O)/C=C/c2ccc(F)cc2)C[C@H]2[C@@H](C)[C@H](OC(=O)/C=C/c3ccc(F)cc3)O[C@@H]3O[C@@]4(C)CC[C@@H]1[C@]32OO4
IC50 [1]: > 100 µM
IC50 [2]: > 100 µM
IC50 [3]: > 100 µM
IC50 [4]: > 100 µM

C[C@@H]1[C@H](OC(=O)/C=C/c2ccc(Br)cc2)C[C@H]2[C@@H](C)[C@H](OC(=O)/C=C/c3ccc(Br)cc3)O[C@@H]3O[C@@]4(C)CC[C@@H]1[C@]32OO4
IC50 [1]: 19.7 µM
IC50 [2]: 35.3 µM
IC50 [3]: > 100 µM
IC50 [4]: 35.8 µM

C[C@@H]1[C@H](O)C[C@H]2[C@@H](C)[C@H](OC(=O)/C=C/c3ccc(Br)cc3)O[C@@H]3O[C@@]4(C)CC[C@@H]1[C@]32OO4
IC50 [1]: > 100 µM
IC50 [2]: > 100 µM
IC50 [3]: 84.5 µM
IC50 [4]: > 100 µM

COc1ccc(/C=C/C(=O)O[C@@H]2O[C@@H]3O[C@@]4(C)CC[C@H]5[C@H](C)[C@H](OC(=O)/C=C/c6ccc(OC)cc6)C[C@@H]([C@H]2C)[C@@]35OO4)cc1
IC50 [1]: 9.58 µM
IC50 [2]: 7.01 µM
IC50 [3]: 41.5 µM
IC50 [4]: 28.3 µM

C[C@@H]1[C@H](OC(=O)/C=C/c2ccc(C(F)(F)F)cc2)C[C@H]2[C@@H](C)[C@H](OC(=O)/C=C/c3ccc(C(F)(F)F)cc3)O[C@@H]3O[C@@]4(C)CC[C@@H]1[C@]32OO4
IC50 [1]: 43.5 µM
IC50 [2]: 5.08 µM
IC50 [3]: 67.7 µM
IC50 [4]: 39.4 µM

C[C@@H]1[C@H](OC(=O)/C=C/c2ccccc2Cl)C[C@H]2[C@@H](C)[C@H](OC(=O)/C=C/c3ccccc3Cl)O[C@@H]3O[C@@]4(C)CC[C@@H]1[C@]32OO4
IC50 [1]: 76.2 µM
IC50 [2]: 96.2 µM
IC50 [3]: > 100 µM
IC50 [4]: > 100 µM

C[C@H]1[C@@H](O)O[C@@H]2O[C@@]3(C)CC[C@H]4[C@H](C)CC[C@@H]1[C@@]24OO3 [ARTENIMOL]
IC50 [1]: > 100 µM
IC50 [7]: 146 µM
IC50 [2]: 80.4 µM
Ratio IC50 [8]: 1.81
IC50 [3]: 21.9 µM
Stability [6]: Unstable
IC50 [4]: > 100 µM

C[C@@H]1[C@H](O)C[C@H]2[C@@H](C)[C@H](OC(=O)/C=C/c3ccc(C(F)(F)F)cc3)O[C@@H]3O[C@@]4(C)CC[C@@H]1[C@]32OO4
IC50 [1]: > 100 µM
IC50 [2]: > 100 µM
IC50 [3]: > 100 µM
IC50 [4]: 85.7 µM

C[C@@H]1[C@H](OC(=O)/C=C/c2ccccc2)C[C@H]2[C@@H](C)[C@H](OC(=O)/C=C/c3ccccc3)O[C@@H]3O[C@@]4(C)CC[C@@H]1[C@]32OO4
IC50 [1]: 36 µM
Stability [5]: Stable
IC50 [2]: 4.42 µM
IC50 [3]: 18 µM
degraded [6]: 1%
IC50 [4]: 12.8 µM

COc1ccccc1/C=C/C(=O)O[C@@H]1O[C@@H]2O[C@@]3(C)CC[C@H]4[C@H](C)[C@H](O)C[C@@H]([C@H]1C)[C@@]24OO3
IC50 [1]: 74.9 µM
IC50 [2]: > 100 µM
IC50 [3]: 74.1 µM
IC50 [4]: > 100 µM

COc1cccc(/C=C/C(=O)O[C@@H]2O[C@@H]3O[C@@]4(C)CC[C@H]5[C@H](C)[C@H](O)C[C@@H]([C@H]2C)[C@@]35OO4)c1
IC50 [1]: > 100 µM
IC50 [2]: > 100 µM
IC50 [3]: > 100 µM
IC50 [4]: > 100 µM

C[C@@H]1[C@H](OC(=O)/C=C/c2ccc(Cl)cc2)C[C@H]2[C@@H](C)[C@H](OC(=O)/C=C/c3ccc(Cl)cc3)O[C@@H]3O[C@@]4(C)CC[C@@H]1[C@]32OO4
IC50 [1]: 6.76 µM
Stability [5]: Stable
IC50 [2]: 1.5 µM
IC50 [3]: 58.3 µM
degraded [6]: 1%
IC50 [4]: 21.3 µM

C[C@@H]1[C@H](O)C[C@H]2[C@@H](C)[C@H](OC(=O)/C=C/c3cccc(Cl)c3)O[C@@H]3O[C@@]4(C)CC[C@@H]1[C@]32OO4
IC50 [1]: > 100 µM
IC50 [2]: > 100 µM
IC50 [3]: 95.9 µM
IC50 [4]: > 100 µM

C[C@@H]1[C@H](O)C[C@H]2[C@@H](C)[C@H](OC(=O)/C=C/c3ccccc3F)O[C@@H]3O[C@@]4(C)CC[C@@H]1[C@]32OO4
IC50 [1]: 89.6 µM
IC50 [2]: 92.7 µM
IC50 [3]: 47.1 µM
IC50 [4]: > 100 µM

C[C@@H]1[C@H](OC(=O)/C=C/c2ccccc2F)C[C@H]2[C@@H](C)[C@H](OC(=O)/C=C/c3ccccc3F)O[C@@H]3O[C@@]4(C)CC[C@@H]1[C@]32OO4
IC50 [1]: 12.5 µM
IC50 [2]: 4.66 µM
IC50 [3]: 18.8 µM
IC50 [4]: > 100 µM

C[C@@H]1[C@H](OC(=O)/C=C/c2c(Cl)cccc2Cl)C[C@H]2[C@@H](C)[C@H](OC(=O)/C=C/c3c(Cl)cccc3Cl)O[C@@H]3O[C@@]4(C)CC[C@@H]1[C@]32OO4
IC50 [1]: > 100 µM
IC50 [2]: > 100 µM
IC50 [3]: > 100 µM
IC50 [4]: 60.8 µM

O=c1[nH]cc(F)c(=O)[nH]1 [FLUOROURACIL]
IC50 [1]: 42.5 µM
IC50 [7]: 25.9 µM
Ratio IC50 [8]: 3.83
IC50 [3]: 15.2 µM
IC50 [4]: 11.9 µM

COc1ccc(/C=C/C(=O)O[C@@H]2O[C@@H]3O[C@@]4(C)CC[C@H]5[C@H](C)[C@H](O)C[C@@H]([C@H]2C)[C@@]35OO4)c(OC)c1OC
IC50 [1]: > 100 µM
IC50 [2]: 40.1 µM
IC50 [3]: 69.9 µM
IC50 [4]: > 100 µM

C[C@@H]1[C@H](OC(=O)CCc2ccccc2)C[C@H]2[C@@H](C)[C@H](OC(=O)CCc3ccccc3)O[C@@H]3O[C@@]4(C)CC[C@@H]1[C@]32OO4
IC50 [1]: 20.5 µM
IC50 [2]: 43.2 µM
IC50 [3]: > 100 µM
IC50 [4]: 87.8 µM

COc1ccc(/C=C/C(=O)O[C@@H]2O[C@@H]3O[C@@]4(C)CC[C@H]5[C@H](C)[C@H](O)C[C@@H]([C@H]2C)[C@@]35OO4)cc1OC
IC50 [1]: > 100 µM
IC50 [2]: 28.9 µM
IC50 [3]: 61 µM
IC50 [4]: > 100 µM

COc1ccccc1/C=C/C(=O)O[C@@H]1O[C@@H]2O[C@@]3(C)CC[C@H]4[C@H](C)[C@H](OC(=O)/C=C/c5ccccc5OC)C[C@@H]([C@H]1C)[C@@]24OO3
IC50 [1]: 11.5 µM
IC50 [2]: 2.55 µM
IC50 [3]: 52.3 µM
IC50 [4]: 46.4 µM
